Assays:
[1] = molecular target: Bifunctional 3'-5' exonuclease/ATP-dependent helicase WRN (Homo sapiens, UniProt Q14191); experiment: ADP-Glo Kinase Assay
Procedure: ATPase activity was measured using the ADP-Glo Kinase Assay following the manufacturers recommended protocol.

[2] = molecular target: T1, Bifunctional 3'-5' exonuclease/ATP-dependent helicase WRN [480-1251] (UniProt Q14191); experiment: Biochemical Activity Assays
T1 construct: 480-1251
T1 sequence (Q14191 480-1251): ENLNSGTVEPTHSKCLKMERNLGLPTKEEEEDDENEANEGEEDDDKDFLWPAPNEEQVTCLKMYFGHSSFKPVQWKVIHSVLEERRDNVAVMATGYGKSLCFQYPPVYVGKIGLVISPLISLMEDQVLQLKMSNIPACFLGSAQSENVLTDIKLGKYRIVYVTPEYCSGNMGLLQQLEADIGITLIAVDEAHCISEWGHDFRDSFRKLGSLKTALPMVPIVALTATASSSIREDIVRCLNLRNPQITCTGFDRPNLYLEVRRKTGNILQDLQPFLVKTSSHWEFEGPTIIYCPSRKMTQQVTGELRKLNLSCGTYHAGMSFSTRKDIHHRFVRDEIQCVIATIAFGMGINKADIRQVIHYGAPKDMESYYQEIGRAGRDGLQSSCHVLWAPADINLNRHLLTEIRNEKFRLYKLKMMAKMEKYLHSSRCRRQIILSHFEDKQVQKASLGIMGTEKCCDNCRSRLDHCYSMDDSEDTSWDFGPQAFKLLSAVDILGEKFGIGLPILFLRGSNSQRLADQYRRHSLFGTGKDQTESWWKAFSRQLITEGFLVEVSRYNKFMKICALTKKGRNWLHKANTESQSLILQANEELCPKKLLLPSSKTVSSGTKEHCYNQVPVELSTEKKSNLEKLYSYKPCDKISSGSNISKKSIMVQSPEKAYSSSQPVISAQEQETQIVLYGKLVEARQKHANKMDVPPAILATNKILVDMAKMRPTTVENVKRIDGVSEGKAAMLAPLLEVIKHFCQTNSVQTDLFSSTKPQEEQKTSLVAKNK

Bifunctional 3'-5' exonuclease/ATP-dependent helicase WRN, sequence (Q14191 whole entry): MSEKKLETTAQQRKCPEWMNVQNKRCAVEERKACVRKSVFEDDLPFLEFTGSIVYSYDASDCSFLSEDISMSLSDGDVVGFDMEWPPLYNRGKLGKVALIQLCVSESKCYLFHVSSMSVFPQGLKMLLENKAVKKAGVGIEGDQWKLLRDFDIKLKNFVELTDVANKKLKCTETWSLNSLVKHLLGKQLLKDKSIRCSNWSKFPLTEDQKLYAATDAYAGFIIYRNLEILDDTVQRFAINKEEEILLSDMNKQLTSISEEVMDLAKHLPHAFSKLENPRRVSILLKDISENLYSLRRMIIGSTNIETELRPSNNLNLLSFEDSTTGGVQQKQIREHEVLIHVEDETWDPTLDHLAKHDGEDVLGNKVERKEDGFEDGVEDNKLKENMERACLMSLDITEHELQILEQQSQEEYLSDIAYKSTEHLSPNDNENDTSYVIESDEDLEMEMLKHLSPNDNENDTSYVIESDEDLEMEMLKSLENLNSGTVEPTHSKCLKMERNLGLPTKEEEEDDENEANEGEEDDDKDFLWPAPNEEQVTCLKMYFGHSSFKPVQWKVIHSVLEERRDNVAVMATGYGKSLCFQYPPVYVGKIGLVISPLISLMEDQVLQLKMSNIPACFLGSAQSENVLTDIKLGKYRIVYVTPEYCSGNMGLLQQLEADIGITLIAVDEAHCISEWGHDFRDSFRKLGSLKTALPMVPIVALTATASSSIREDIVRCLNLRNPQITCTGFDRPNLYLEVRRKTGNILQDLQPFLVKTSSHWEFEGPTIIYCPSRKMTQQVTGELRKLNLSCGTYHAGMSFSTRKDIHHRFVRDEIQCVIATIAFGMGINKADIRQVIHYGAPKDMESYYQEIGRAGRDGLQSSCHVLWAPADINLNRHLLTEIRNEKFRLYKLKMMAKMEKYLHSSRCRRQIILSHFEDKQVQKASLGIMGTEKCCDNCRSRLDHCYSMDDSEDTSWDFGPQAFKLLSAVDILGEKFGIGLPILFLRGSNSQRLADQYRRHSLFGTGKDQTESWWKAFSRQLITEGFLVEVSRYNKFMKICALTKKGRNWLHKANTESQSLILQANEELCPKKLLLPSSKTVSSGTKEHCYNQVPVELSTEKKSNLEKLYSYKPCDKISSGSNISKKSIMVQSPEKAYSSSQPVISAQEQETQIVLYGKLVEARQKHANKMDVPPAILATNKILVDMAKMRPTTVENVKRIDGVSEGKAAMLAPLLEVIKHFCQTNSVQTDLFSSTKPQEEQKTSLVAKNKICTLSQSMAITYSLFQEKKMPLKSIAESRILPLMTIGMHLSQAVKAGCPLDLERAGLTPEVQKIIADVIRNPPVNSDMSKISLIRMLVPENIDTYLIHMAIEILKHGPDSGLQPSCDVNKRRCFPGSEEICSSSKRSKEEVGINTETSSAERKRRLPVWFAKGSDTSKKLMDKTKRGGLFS

SMILES	IC50 [1]	IC50 [2]
CCc1c(N2CCN(C(=O)c3ncnc(C)c3O)CC2)c(=O)n2nc(-c3ccc4nccnc4c3)nc2n1CC(=O)Nc1ccc(C(F)(F)F)cc1Cl [WO2025049746, Example 280]	28 nM	31 nM
CCc1c(N2CCN(C(=O)c3ncnc(C)c3O)CC2)c(=O)n2nc(-c3ccc4c(c3)OCCN4)nc2n1CC(=O)Nc1ccc(C(F)(F)F)cc1Cl [WO2025049746, Example 281]	27 nM	31 nM
CCc1c(N2CCN(C(=O)c3ncnc(C)c3O)CC2)c(=O)n2nc(-c3cnc4nc(C)oc4c3)nc2n1CC(=O)Nc1ccc(C(F)(F)F)cc1Cl [WO2025049746, Example 282]	47 nM	53 nM
CCc1c(N2CCN(C(=O)c3ncnc(C)c3O)CC2)c(=O)n2nc(-c3ccc4occc4c3)nc2n1CC(=O)Nc1ccc(C(F)(F)F)cc1Cl [WO2025049746, Example 283]	33 nM	37 nM
CCc1c(N2CCN(C(=O)c3ncnc(C)c3O)CC2)c(=O)n2nc(-c3ccc4nc(N)oc4c3)nc2n1CC(=O)Nc1ccc(C(F)(F)F)cc1Cl [WO2025049746, Example 284]	25 nM	26 nM
CCc1c(N2CCN(C(=O)c3ncnc(C)c3O)CC2)c(=O)n2nc(-c3ccc4nc(C)sc4c3)nc2n1CC(=O)Nc1ccc(C(F)(F)F)cc1Cl [WO2025049746, Example 285]	26 nM	29 nM
CCc1c(N2CCN(C(=O)c3ncnc(C)c3O)CC2)c(=O)n2nc(-c3cc(OC)c4nn(C)cc4c3)nc2n1CC(=O)Nc1ccc(C(F)(F)F)cc1Cl [WO2025049746, Example 286]	35 nM	38 nM
CCc1c(N2CCN(C(=O)c3ncnc(C)c3O)CC2)c(=O)n2nc(-c3cc(F)c4nn(C)cc4c3)nc2n1CC(=O)Nc1ccc(C(F)(F)F)cc1Cl [WO2025049746, Example 287]	28 nM	29 nM
CCc1c(N2CCN(C(=O)c3ncnc(C)c3O)CC2)c(=O)n2nc(-c3ccc4scnc4c3)nc2n1CC(=O)Nc1ccc(C(F)(F)F)cc1Cl [WO2025049746, Example 288]	40 nM	43 nM
CCc1c(N2CCN(C(=O)c3ncnc(C)c3O)CC2)c(=O)n2nc(-c3ccc4c(c3)COC43CCOCC3)nc2n1CC(=O)Nc1ccc(C(F)(F)F)cc1Cl [WO2025049746, Example 289]	53 nM	56 nM
CCc1c(N2CCN(C(=O)c3ncnc(C)c3O)CC2)c(=O)n2nc(-c3ccc4nn(C)c(F)c4c3)nc2n1CC(=O)Nc1ccc(C(F)(F)F)cc1Cl [WO2025049746, Example 290]	29 nM	31 nM
CCc1c(N2CCN(C(=O)c3ncnc(C)c3O)CC2)c(=O)n2nc(-c3cc4cn(C(F)F)nc4cc3F)nc2n1CC(=O)Nc1ccc(C(F)(F)F)cc1Cl [WO2025049746, Example 291]	30 nM	31 nM
CCc1c(N2CCN(C(=O)c3ncnc(C)c3O)CC2)c(=O)n2nc(-c3ccc4nn(CC(F)F)cc4c3)nc2n1CC(=O)Nc1ccc(C(F)(F)F)cc1Cl [WO2025049746, Example 292]	28 nM	29 nM
CCc1c(N2CCN(C(=O)c3ncnc(C)c3O)CC2)c(=O)n2nc(-c3ccc4c(cnn4CC(F)F)c3)nc2n1CC(=O)Nc1ccc(C(F)(F)F)cc1Cl [WO2025049746, Example 293]	33 nM	34 nM
CCc1c(N2CCN(C(=O)c3ncnc(C)c3O)CC2)c(=O)n2nc(-c3ccc4c(c3)CCN(C)C4)nc2n1CC(=O)Nc1ccc(C(F)(F)F)cc1Cl [WO2025049746, Example 294]	44 nM	48 nM
CCc1c(N2CCN(C(=O)c3ncnc(C)c3O)CC2)c(=O)n2nc(-c3ccc4nn(C)cc4c3C)nc2n1CC(=O)Nc1ccc(C(F)(F)F)cc1Cl [WO2025049746, Example 295]	34 nM	35 nM
CCc1c(N2CCN(C(=O)c3ncnc(C)c3O)CC2)c(=O)n2nc(-c3ccc4c(c3)CC(C)(C)N4C(C)=O)nc2n1CC(=O)Nc1ccc(C(F)(F)F)cc1Cl [WO2025049746, Example 296]	36 nM	38 nM

The remaining lines, values ahead:

IC50 [1]	IC50 [2]	SMILES
31 nM	32 nM	CCc1c(N2CCN(C(=O)c3ncnc(C)c3O)CC2)c(=O)n2nc(-c3cc(F)c4nc(C)oc4c3)nc2n1CC(=O)Nc1ccc(C(F)(F)F)cc1Cl [WO2025049746, Example 297]
31 nM	29 nM	CCc1c(N2CCN(C(=O)c3ncnc(C)c3O)CC2)c(=O)n2nc(-c3ccc4nn(C)c(C)c4c3)nc2n1CC(=O)Nc1ccc(C(F)(F)F)cc1Cl [WO2025049746, Example 298]
29 nM	31 nM	CCc1c(N2CCN(C(=O)c3ncnc(C)c3O)CC2)c(=O)n2nc(-c3cc(C)c4nn(C)cc4c3)nc2n1CC(=O)Nc1ccc(C(F)(F)F)cc1Cl [WO2025049746, Example 299]
68 nM	57 nM	CCc1c(N2CCN(C(=O)c3ncnc(C)c3O)CC2)c(=O)n2nc(-c3cnc4cn(C)nc4c3)nc2n1CC(=O)Nc1ccc(C(F)(F)F)cc1Cl [WO2025049746, Example 300]
33 nM	35 nM	CCc1c(N2CCN(C(=O)c3ncnc(C)c3O)CC2)c(=O)n2nc(-c3ccc4nn(C)nc4c3)nc2n1CC(=O)Nc1ccc(C(F)(F)F)cc1Cl [WO2025049746, Example 301]
29 nM	35 nM	CCCn1cc2cc(-c3nc4n(CC(=O)Nc5ccc(C(F)(F)F)cc5Cl)c(CC)c(N5CCN(C(=O)c6ncnc(C)c6O)CC5)c(=O)n4n3)ccc2n1 [WO2025049746, Example 302]
42 nM	45 nM	CCc1c(N2CCN(C(=O)c3ncnc(C)c3O)CC2)c(=O)n2nc(-c3ccc4nc(NCC(F)F)oc4c3)nc2n1CC(=O)Nc1ccc(C(F)(F)F)cc1Cl [WO2025049746, Example 303]
32 nM	29 nM	CCc1c(N2CCN(C(=O)c3ncnc(C)c3O)CC2)c(=O)n2nc(-c3cnc4ccn(C)c4c3)nc2n1CC(=O)Nc1ccc(C(F)(F)F)cc1Cl [WO2025049746, Example 304]
48 nM	48 nM	CCc1c(N2CCN(C(=O)c3ncnc(C)c3O)CC2)c(=O)n2nc(-c3cnc4nccn4c3)nc2n1CC(=O)Nc1ccc(C(F)(F)F)cc1Cl [WO2025049746, Example 305]
29700 nM	29700 nM	CCc1c(N2CCN(C(=O)c3ncnc(C)c3O)CC2)c(=O)n2nc(-c3cc4c(cnn4C)cc3C)nc2n1CC(=O)Nc1ccc(C(F)(F)F)cc1Cl [WO2025049746, Example 306]
32 nM	32 nM	CCc1c(N2CCN(C(=O)c3ncnc(C)c3O)CC2)c(=O)n2nc(-c3ccc4nc(NC)oc4c3)nc2n1CC(=O)Nc1ccc(C(F)(F)F)cc1Cl [WO2025049746, Example 307]
47 nM	49 nM	CCc1c(N2CCN(C(=O)c3ncnc(C)c3O)CC2)c(=O)n2nc(-c3ccc4c(c3)CN(C)CC4)nc2n1CC(=O)Nc1ccc(C(F)(F)F)cc1Cl [WO2025049746, Example 308]
32 nM	31 nM	CCc1c(N2CCN(C(=O)c3ncnc(C)c3O)CC2)c(=O)n2nc(-c3ccc4c(c3)NC(=O)C4)nc2n1CC(=O)Nc1ccc(C(F)(F)F)cc1Cl [WO2025049746, Example 309]
26 nM	27 nM	CCc1c(N2CCN(C(=O)c3ncnc(C)c3O)CC2)c(=O)n2nc(-c3cnc4sccc4c3)nc2n1CC(=O)Nc1ccc(C(F)(F)F)cc1Cl [WO2025049746, Example 310]
50 nM	47 nM	CCc1c(N2CCN(C(=O)c3ncnc(C)c3O)CC2)c(=O)n2nc(-c3cc4cnn(C)c4cc3C)nc2n1CC(=O)Nc1ccc(C(F)(F)F)cc1Cl [WO2025049746, Example 311]
35 nM	37 nM	CCc1c(N2CCN(C(=O)c3ncnc(C)c3O)CC2)c(=O)n2nc(-c3ccc4c(c3)c(C)nn4C)nc2n1CC(=O)Nc1ccc(C(F)(F)F)cc1Cl [WO2025049746, Example 312]
35 nM	38 nM	CCc1c(N2CCN(C(=O)c3ncnc(C)c3O)CC2)c(=O)n2nc(-c3cnc4nn(C)cc4c3)nc2n1CC(=O)Nc1ccc(C(F)(F)F)cc1Cl [WO2025049746, Example 313]
32 nM	33 nM	CCc1c(N2CCN(C(=O)c3ncnc(C)c3O)CC2)c(=O)n2nc(-c3ccc4c(c3)nnn4C)nc2n1CC(=O)Nc1ccc(C(F)(F)F)cc1Cl [WO2025049746, Example 314]
34 nM	33 nM	CCc1c(N2CCN(C(=O)c3ncnc(C)c3O)CC2)c(=O)n2nc(-c3ccc4nc(N5CCOCC5)oc4c3)nc2n1CC(=O)Nc1ccc(C(F)(F)F)cc1Cl [WO2025049746, Example 315]
57 nM	68 nM	CCc1c(N2CCN(C(=O)c3ncnc(C)c3O)CC2)c(=O)n2nc(-c3ccc4c(c3)CC(C)(C)N4C)nc2n1CC(=O)Nc1ccc(C(F)(F)F)cc1Cl [WO2025049746, Example 316]
75 nM	93 nM	CCc1c(N2CCN(C(=O)c3ncnc(C)c3O)CC2)c(=O)n2nc(-c3cc(OC(F)F)n4nccc4c3F)nc2n1CC(=O)Nc1ccc(C(F)(F)F)cc1Cl [WO2025049746, Example 317]
23 nM	24 nM	CCc1c(N2CCN(C(=O)c3ncnc(C)c3O)CC2)c(=O)n2nc(-c3ccc4[nH]c(=O)ccc4c3)nc2n1CC(=O)Nc1ccc(C(F)(F)F)cc1Cl [WO2025049746, Example 318]
25 nM	30 nM	CCc1c(N2CCN(C(=O)c3ncnc(C)c3O)CC2)c(=O)n2nc(-c3ccc4nn(CC)cc4c3)nc2n1CC(=O)Nc1ccc(C(F)(F)F)cc1Cl [WO2025049746, Example 319]
19 nM	22 nM	CCc1c(N2CCN(C(=O)c3ncnc(C)c3O)CC2)c(=O)n2nc(-c3cc(F)c4ncccc4c3F)nc2n1CC(=O)Nc1ccc(C(F)(F)F)cc1Cl [WO2025049746, Example 320]
20 nM	23 nM	CCc1c(N2CCN(C(=O)c3ncnc(C)c3O)CC2)c(=O)n2nc(-c3ccc4c(cnn4C)c3)nc2n1CC(=O)Nc1ccc(C(F)(F)F)cc1Cl [WO2025049746, Example 321]

— BindingDB's records for patent WO2025049746 (Eikon Therapeutics, 2025)
